Measured values: ChEMBL document CHEMBL3808337, “Rapid Discovery of Pyrido[3,4-d]pyrimidine Inhibitors of Monopolar Spindle Kinase 1 (MPS1) Using a Structure-Based Hybridization Approach” (J Med Chem, 2016)

Experiments:
Cytochrome P450 2D6 = Cytochrome P450 2D6 (Homo sapiens, UniProt P10635)
Cytochrome P450 2C19 = Cytochrome P450 2C19 (Homo sapiens, UniProt P33261); assay: Inhibition of CYP2C19 (unknown origin); format: ADME
Cytochrome P450 1A2 = molecular target: T1, Cytochrome P450 1A2 (Homo sapiens, UniProt P05177); assay: Inhibition of CYP1A2 (unknown origin); format: ADME
T1 sequence (P05177 whole entry): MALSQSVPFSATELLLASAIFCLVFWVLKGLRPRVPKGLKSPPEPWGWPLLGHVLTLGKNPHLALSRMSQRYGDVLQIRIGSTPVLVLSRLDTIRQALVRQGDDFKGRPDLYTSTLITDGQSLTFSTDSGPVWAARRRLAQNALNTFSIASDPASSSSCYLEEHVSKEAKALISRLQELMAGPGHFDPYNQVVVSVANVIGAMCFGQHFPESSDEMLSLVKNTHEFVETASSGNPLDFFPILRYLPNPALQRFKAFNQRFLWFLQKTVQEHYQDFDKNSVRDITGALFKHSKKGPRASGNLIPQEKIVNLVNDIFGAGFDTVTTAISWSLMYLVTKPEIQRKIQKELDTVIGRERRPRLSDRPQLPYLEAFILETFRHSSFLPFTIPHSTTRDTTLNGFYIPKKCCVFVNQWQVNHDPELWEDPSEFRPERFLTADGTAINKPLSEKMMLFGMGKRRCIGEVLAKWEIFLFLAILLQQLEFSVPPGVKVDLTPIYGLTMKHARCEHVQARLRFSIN

Cytochrome P450 3A4 = Cytochrome P450 3A4 (Homo sapiens, UniProt P08684)
Cytochrome P450 3A4, sequence (P08684 whole entry): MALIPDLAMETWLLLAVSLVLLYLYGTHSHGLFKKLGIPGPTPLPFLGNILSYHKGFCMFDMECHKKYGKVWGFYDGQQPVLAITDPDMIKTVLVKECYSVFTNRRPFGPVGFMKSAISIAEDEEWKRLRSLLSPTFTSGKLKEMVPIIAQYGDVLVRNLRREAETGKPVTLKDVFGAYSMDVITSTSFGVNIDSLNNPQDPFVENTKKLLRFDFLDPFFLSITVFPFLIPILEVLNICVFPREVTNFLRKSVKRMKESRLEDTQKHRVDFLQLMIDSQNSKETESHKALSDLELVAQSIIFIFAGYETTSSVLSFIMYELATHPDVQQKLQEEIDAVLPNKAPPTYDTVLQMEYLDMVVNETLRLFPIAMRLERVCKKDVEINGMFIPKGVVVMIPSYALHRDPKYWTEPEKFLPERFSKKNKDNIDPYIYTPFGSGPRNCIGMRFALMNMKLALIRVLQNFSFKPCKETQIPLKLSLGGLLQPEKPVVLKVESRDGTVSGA

Cytochrome P450 2C9 = Cytochrome P450 2C9 (Homo sapiens, UniProt P11712); assay: Inhibition of CYP2C9 (unknown origin); format: ADME
Cytochrome P450 2C9, sequence (P11712 whole entry): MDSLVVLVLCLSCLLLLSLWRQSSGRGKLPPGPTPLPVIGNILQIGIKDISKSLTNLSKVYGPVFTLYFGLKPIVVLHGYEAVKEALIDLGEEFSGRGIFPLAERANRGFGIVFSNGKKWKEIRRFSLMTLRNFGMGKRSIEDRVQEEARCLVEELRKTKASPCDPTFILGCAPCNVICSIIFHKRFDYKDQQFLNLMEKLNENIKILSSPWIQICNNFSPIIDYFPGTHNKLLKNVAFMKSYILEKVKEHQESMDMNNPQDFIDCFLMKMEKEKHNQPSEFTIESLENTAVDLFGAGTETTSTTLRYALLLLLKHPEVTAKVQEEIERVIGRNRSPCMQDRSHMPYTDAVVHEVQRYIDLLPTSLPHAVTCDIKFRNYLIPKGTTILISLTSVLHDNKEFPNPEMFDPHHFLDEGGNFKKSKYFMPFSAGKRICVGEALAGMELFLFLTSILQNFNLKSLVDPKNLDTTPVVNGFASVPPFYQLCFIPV

[1] = Drug metabolism in CD1 mouse liver microsomes at 10 uM after 30 mins by LCMS analysis; format: ADME; conditions: read-out: Drug metabolism
CDK2/Cyclin A2 = CDK2/Cyclin A2 (Homo sapiens, UniProt P24941)
[2] = Antiproliferative activity against human HCT116 cells assessed as cell viability after 72 hrs by MTT assay; format: functional; conditions: HCT-116, 72 h

Cytochrome P450 2D6, sequence (P10635 whole entry): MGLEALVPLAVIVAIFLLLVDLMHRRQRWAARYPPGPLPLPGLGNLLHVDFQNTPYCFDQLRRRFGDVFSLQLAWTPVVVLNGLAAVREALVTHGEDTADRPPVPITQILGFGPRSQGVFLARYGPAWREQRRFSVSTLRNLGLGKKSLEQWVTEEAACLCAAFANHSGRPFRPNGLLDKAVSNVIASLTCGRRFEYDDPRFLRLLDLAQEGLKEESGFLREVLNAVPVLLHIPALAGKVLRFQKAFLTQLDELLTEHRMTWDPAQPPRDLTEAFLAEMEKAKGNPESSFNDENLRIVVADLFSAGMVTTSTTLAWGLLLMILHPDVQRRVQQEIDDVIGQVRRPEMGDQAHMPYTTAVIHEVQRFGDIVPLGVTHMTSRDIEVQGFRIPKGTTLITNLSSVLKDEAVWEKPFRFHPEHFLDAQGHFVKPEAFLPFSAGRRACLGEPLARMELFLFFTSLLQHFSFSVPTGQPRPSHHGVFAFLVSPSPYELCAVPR
Cytochrome P450 2C19, sequence (P33261 whole entry): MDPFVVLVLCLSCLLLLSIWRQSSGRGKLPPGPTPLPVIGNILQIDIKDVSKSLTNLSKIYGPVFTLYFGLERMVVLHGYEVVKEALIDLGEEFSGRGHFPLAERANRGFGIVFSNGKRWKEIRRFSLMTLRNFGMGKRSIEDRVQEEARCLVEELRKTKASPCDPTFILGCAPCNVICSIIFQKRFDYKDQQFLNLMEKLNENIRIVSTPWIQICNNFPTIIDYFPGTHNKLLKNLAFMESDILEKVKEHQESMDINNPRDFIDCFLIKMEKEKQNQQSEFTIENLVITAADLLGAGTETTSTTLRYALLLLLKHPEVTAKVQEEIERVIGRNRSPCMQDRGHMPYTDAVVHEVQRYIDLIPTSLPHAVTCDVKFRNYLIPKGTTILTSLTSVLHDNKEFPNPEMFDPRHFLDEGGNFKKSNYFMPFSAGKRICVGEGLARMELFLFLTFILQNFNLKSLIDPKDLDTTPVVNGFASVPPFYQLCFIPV

Compound	metabolised at 0.5 h, 10 µM [1] [%]	GI50 [2] [nM]	other results
Cn1cc(-c2cc3cnc(Nc4ccc(-c5cncn5C)cc4Cl)cc3n2C(=O)OC(C)(C)C)cn1	–	–	IC50 (Cytochrome P450 2D6): < 1000 nM; IC50 (Cytochrome P450 2C19): < 1000 nM; IC50 (Cytochrome P450 1A2): < 1000 nM; IC50 (Cytochrome P450 3A4): < 1000 nM; IC50 (Cytochrome P450 2C9): < 1000 nM
COc1cc(-c2cnn(C)c2)ccc1Nc1ncc2ccnc(NC3CCCCC3)c2n1	22	120	IC50 (CDK2/Cyclin A2): 190 nM; Ki (CDK2/Cyclin A2): 100 nM
COc1cc(-c2cnn(C)c2)ccc1Nc1ncc2ccnc(-c3ccccc3)c2n1	40	–	–
COc1cc(-c2cnn(C)c2)ccc1Nc1ncc2ccnc(N[C@H](C)C(C)(C)C)c2n1	25	220	–
COc1cc(-c2cnn(C)c2)ccc1Nc1ncc2ccnc(N3CCCC3)c2n1	64	470	–

Continued, in another order:

metabolised at 0.5 h, 10 µM [1] [%]	Compound	GI50 [2] [nM]	other results
45	CCOc1cc(-c2cnn(C)c2)ccc1Nc1ncc2ccnc(-c3cnn(C)c3)c2n1	–	IC50 (CDK2/Cyclin A2): > 45000 nM
51	COc1cc(-c2cnn(C)c2)ccc1Nc1ncc2ccnc(C3CC3)c2n1	–	–
63	Cc1cc(-c2cnn(C)c2)ccc1Nc1ncc2ccnc(-c3cnn(C)c3)c2n1	–	–
31	COc1cc(-c2cnn(C)c2)ccc1Nc1ncc2ccnc(NCC(C)(C)C)c2n1	340	–
